Measurements published in patent US20110152252A1 (priority 2007, published 2011).
Where two headings read alike, the source gives them in different places.

Legend:
[1] = tested on: Gb3-expressing HT-29 cells; assay: cells; type: cell-based
[2] = target: mitochondrial peripheral benzodiazepine receptor, mPBR (Homo sapiens, UniProt P30536); details: cited from earlier work
[3] = tested on: periampular tumors in APC^1638N mice; details: mouse, in vivo

Chain of mitochondrial peripheral benzodiazepine receptor, mPBR (P30536 whole entry): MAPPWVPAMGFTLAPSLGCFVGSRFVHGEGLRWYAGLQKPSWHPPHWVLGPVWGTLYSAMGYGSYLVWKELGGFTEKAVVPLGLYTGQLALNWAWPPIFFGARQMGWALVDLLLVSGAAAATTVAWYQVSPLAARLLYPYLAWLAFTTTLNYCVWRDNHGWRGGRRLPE

Molecule: SN-38
- IC50 ([1]; read-out: IC50): 30 nM

Molecule: RO5-4864
- Ki [2]: 23 nM

Molecule: CCc1c2c(nc3ccc(OC(=O)N4CCC(N5CCCCC5)CC4)cc13)-c1cc3c(c(=O)n1C2)COC(=O)[C@]3(O)CC [CPT11]
- IC50 ([1]; Homo sapiens, HT-29): 70000 nM
- inflammatory reaction in the periampular region (pathology) [3]: weak and very moderate inflammatory reaction
- tumor growth / development of periampular tumors [3]: periampular tumors developed
- tumor lesions detected (pathology) [3]: high-grade adenomas and carcinomas could be detected
